Publication PMC4922860, “Atypical calcium regulation of the PKD2-L1 polycystin ion channel” (eLife, 2016)
Positions count from the first letter of the chain named.

Experiments:
Assay type in all cases: cell-based
[1] = molecular target: T1, human PKD2-L1, homomeric channel (Homo sapiens, UniProt Q9P0L9, D523N); experiment: whole-cell patch clamp, current potentiation, voltage ramps
T1 construct: gene PKD2L1; full-length isoform 1 in pTracer CMV2, transiently transfected HEK 293T cells; homotetramer; whole-cell patch clamp
T1 sequence (Q9P0L9 1-805 D523N): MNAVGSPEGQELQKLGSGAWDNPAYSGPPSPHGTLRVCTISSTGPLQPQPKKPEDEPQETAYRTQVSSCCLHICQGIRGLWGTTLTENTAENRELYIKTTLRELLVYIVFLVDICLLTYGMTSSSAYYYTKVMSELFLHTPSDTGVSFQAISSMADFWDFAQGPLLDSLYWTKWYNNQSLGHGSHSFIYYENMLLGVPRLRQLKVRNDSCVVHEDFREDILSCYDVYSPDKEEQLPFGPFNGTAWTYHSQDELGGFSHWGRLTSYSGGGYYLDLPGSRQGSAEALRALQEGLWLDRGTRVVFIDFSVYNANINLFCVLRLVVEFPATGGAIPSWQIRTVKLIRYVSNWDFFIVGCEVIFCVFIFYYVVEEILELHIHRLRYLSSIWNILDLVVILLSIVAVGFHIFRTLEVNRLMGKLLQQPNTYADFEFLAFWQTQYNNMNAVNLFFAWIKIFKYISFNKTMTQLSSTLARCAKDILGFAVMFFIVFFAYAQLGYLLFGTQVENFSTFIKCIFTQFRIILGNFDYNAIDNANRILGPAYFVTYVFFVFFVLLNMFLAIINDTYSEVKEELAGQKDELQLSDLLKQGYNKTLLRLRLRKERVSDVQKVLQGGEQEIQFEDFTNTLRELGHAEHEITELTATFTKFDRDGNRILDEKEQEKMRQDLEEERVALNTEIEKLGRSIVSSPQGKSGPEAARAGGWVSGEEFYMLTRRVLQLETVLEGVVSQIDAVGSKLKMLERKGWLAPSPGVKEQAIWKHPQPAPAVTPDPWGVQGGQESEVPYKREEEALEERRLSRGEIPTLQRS

[2] = molecular target: T2, human PKD2-L1 (Wt), homomeric channel (Homo sapiens, UniProt Q9P0L9); experiment: as above
T2 construct: gene PKD2L1; full-length isoform 1 in pTracer CMV2, transiently transfected HEK 293T cells; homotetramer; whole-cell patch clamp
T2 sequence (Q9P0L9 1-805): T1 sequence (Q9P0L9 1-805 D523N) with N523D

[3] = molecular target: T2, human PKD2-L1 (Wt), homomeric channel; experiment: whole-cell patch clamp, current block, voltage ramps, Hill fit
[4] = molecular target: T1, human PKD2-L1, homomeric channel; experiment: as above

Row | EC50 [1] | EC50 [2] | IC50 [3] | IC50 [4] | SMILES
1 | 9 ± 7 µM | 2.6 ± 6 µM | – | – | Clc1ccc(C(c2ccc(Cl)cc2)n2cc[n+](CC(OCc3ccc(Cl)cc3Cl)c3ccc(Cl)cc3Cl)c2)cc1 (stereo not shown) [calmidazolium]
2 | – | – | 31 ± 5 µM | 23 ± 3 µM | CCCCOc1cc(C(=O)NCCN(CC)CC)c2ccccc2n1 [dibucaine]
